Results: patent US9463242B2, “Methods for treating prostate cancer” (UNIVERSITY OF ROCHESTER, priority 2011, dated 2016)
Entries after “also recorded” stand apart in the source; their conditions may differ. Where two headings read alike, the source gives them in different places. Blank lines part the entries; values can stand above or below the compound they belong to.

Key:
[1] = biological target: T1, AR (Homo sapiens, UniProt P10275); conditions: stated as known; cited from earlier work
T1 sequence (P10275 1-920): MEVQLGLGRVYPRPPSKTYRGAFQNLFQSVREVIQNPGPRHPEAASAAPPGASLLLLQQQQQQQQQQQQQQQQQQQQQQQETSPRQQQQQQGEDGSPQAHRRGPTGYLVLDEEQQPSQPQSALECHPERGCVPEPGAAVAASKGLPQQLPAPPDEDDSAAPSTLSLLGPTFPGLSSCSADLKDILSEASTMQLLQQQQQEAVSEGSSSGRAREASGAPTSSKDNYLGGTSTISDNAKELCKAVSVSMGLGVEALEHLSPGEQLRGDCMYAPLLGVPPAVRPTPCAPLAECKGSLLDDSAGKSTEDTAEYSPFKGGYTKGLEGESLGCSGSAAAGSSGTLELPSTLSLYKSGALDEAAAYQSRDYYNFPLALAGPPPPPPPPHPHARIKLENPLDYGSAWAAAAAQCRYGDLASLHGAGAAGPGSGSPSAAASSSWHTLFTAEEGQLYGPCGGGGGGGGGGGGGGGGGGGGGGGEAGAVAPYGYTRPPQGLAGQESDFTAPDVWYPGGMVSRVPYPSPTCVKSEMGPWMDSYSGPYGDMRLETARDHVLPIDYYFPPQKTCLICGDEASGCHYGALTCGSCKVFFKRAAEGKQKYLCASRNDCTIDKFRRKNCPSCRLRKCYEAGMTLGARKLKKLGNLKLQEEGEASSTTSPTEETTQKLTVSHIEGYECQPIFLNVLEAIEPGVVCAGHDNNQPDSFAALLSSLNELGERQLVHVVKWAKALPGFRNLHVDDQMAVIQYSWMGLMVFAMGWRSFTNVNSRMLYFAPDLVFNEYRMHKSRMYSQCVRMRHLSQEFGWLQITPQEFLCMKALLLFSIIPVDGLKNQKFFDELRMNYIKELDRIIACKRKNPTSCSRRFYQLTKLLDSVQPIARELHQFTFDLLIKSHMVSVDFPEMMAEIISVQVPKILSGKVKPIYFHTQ

[2] = stated as known; cited from earlier work
[3] = system: PCa S/P cells (LNCaP CD133+); assay: MTT growth assay of prostate cancer S/P cells treated with inhibitors; type: cell-based, human; conditions: for IC50: Homo sapiens, LNCaP; for inhibitory effect on proliferation of the S/P cells: used individually
Description: For an MTT assay, cells were incubated in 12- or 24-well culture plates (10^5-10^3 cells/well) and cultured. At 2, 4, and 6 days, 3-(4,5-dimethylthiazol-2-yl)-2,5-diphenyltetrazolium bromide (MTT; 0.5 mg/mL; Sigma) was added. After 2 hours of reaction, absorbances at 570 nm were measured. For soft agar colony formation assay, cell suspension (1×10^4 cells/well in 6 well culture plates) of mixture of 1.5% agarose (Cambrex Bio Science Rockland, Ill.) and 2× medium (2 ml) was overlaid onto the solidified mixture of agarose base (final agarose concentration will be 0.75%). Two mL of normal medium containing various concentrations of DHT was added on top of the solidified agarose cell layer. All conditions were performed in triplicate. The plates were incubated at 37° C. in a humidified incubator for 21 days. The colonies developed were visualized by staining with 1% crystal violet. The colonies larger than 1 mm in diameter were counted. For sphere formation assay, a single cell suspension (1×10^3, in 50 μl medium) was mixed with cold Matrigel 50 μl (kept on ice) and the mixture was placed along the rim of the 24 well with minimum triplicate experiments. The culture plates were placed in a 37° C. incubator for 10 min to let the mixture solidify and 500 μl medium was then added into the well. Cells were grown in 5% RPMI (for human PCa S/P cells) and epithelial basal medium (PrEBM) (Lonza) supplemented with growth supplement (Lonza) (for mouse cells) with addition of various concentrations of DHT (1 or 10 nM). Spheres numbers were counted after 7 to 14 days under Olympus light microscope and size differences were also examined.
The effect of combined use of these molecules to block self-renewal/proliferation of the S/P cells was tested. […] The effect of a combinations of two drugs selected among three drugs, LY294002 (inhibitor of Akt pathway), γ-TT, and 5-AZA was tested. […] The test results of the combination therapies using soft agar (FIG. 19C) and sphere formation assays (FIG. 19D) confirmed the MTT results. One method of two drug combination therapy was selected based on these three growth assays. This combination is the use of γ-TT and 5-AZA. From all the in vitro tests including an LD test, a minimum dose of these drugs that kills S/P cells was determined. This strategy was used for an in vivo study. When tumors developed the mice were castrated and ASC-J9 was injected, Two or three combinations of the drugs that target S/P population cells were administered. A tumor development curve indicated the recurrence of castration resistant tumors.

[4] = system: MyoD and Myogenin expression in primary cultured human prostate stromal cells; assay: Expression of smooth muscle maturation genes after TGF-β1 treatment; type: cell-based; conditions: 10 ng/ml TGF-β1 treatment
Description: (§1) In FIG. 5a, the expression of TGF-β1 was investigated by IHC staining. The decreased expression of TGF-β1 was found in pes-ARKO epithelium. […] In FIG. 5c, to evaluate the TGF-β1 effect on the differentiation of smooth muscle cells, the primary cultured human prostate stromal cells were treated with different doses of TGF-β1. The expression of smooth muscle α-actin, as shown in FIG. 5c and FIG. 5d, and calponin, as shown in FIG. 5e and FIG. 5f, were detected following treatment for 1 to 5 days.
(§2) The expression of TGF-β1 (FIG. 5a) and TGF-β1 downstream signals was detected by immunohistochemistry (IHC) staining in 24 week old wild type and pes-ARKO prostate epithelium. The TGF-β1 expression and its downstream signals were lower in the epithelium of pes-ARKO mice than those from wild type mice. […] MyoD and Myogenin expression, which are deeply involved in the stromal smooth muscle maturation and differentiation, was also modulated by TGF-β1 stimulation (FIG. 5g).

[5] = system: primary cultured human stromal cells (ps-1); assay: TGF-β1 treatment of primary cultured human prostate stromal cells, α-SMA and calponin staining; type: cell-based; conditions: different concentrations of TGF-β1 for 1 to 5 days
Description: as §1, §2

[6] = system: AR expression in LNCaP CD133+ cells; assay: Induction of AR expression in LNCaP CD133+ cells; type: cell-based, human
[7] = system: C4-2 cells; assay: CD133+ population after Casodex treatment, C4-2; type: cell-based, human; conditions: C4-2, Casodex treatment
Description: (§3) In order to investigate whether S/P cell numbers increase after ADT/castration, LNCaP cells were treated with anti-androgen, Casodex, to mimic castration conditions in vitro. […] Similar experiments were performed with C4-2 and LAPC-4 cell lines.

[8] = system: LNCaP cells; assay: CD133+ population after continuous Casodex treatment, LNCaP; type: cell-based, human; conditions: Casodex for 5 wks continuously
Description: as §3

Compound: COc1ccc(/C=C/C(=O)/C=C(O)/C=C/c2ccc(OC)c(OC)c2)cc1OC [ASC-J9]
- AR degrading activity [1]: AR degrading activity
- toxicity [2]: without toxicity

- IC50 ([3]; LY294002 + γ-TT + 5-AZA together, S/P cells, MTT, read-out: IC50 of the individual compound when three compounds were used together): < 1000 nM
- IC50 ([3]; compound used alone, S/P cells, MTT, read-out: IC50 of the individual compound): 2500 to 5000 nM
Compound: O=c1cc(N2CCOCC2)oc2c(-c3ccccc3)cccc12 [LY294002]

Compound: TGF-β1: TGF-β1 protein used to treat primary cultured human prostate stromal cells
- MyoD and Myogenin expression [4]: modulated
- number of mature stromal smooth muscle cells (α-SMA and calponin staining) [5]: significantly dependent on the higher concentration and longer duration

Compound: Nc1ncn([C@H]2C[C@H](O)[C@@H](CO)O2)c(=O)n1 [5-AZA, 5-aza-2′-deoxycytidine]
- IC50 ([3]; read-out: IC50 of the individual compound): 2500 to 5000 nM
- inhibitory effect on proliferation of the S/P cells [3]: inhibits proliferation
- AR expression [6]: Induction of AR expression

Compound: CC(O)(CS(=O)(=O)c1ccc(F)cc1)C(=O)Nc1ccc(C#N)c(C(F)(F)F)c1 (stereo not drawn) [Casodex]
- CD133+ population cells [7]: not as significant as in LNCaP cells
- CD133+ population cells [8]: significantly increased; also recorded: increase

Compound: CC(C)=CCC/C(C)=C/CC/C(C)=C/CC[C@]1(C)CCc2cc(O)c(C)c(C)c2O1 [γ-TT, γ-tocotrienol]
- inhibitory effect on proliferation of the S/P cells [3]: inhibitory effect
